# Values quoted from earlier work as cited in US20140031355A1, “HETEROCYCLIC COMPOUNDS AND THEIR USES” (Amgen Inc., priority 2010, published 2014).
# How the values were obtained:
# [1] = system: systemic lupus erythematosis model; settings: in vivo
# [2] = system: rheumatoid arthritis model; settings: in vivo
# [3] = system: ovalbumin-induced airway inflammation
# [4] = system: passive cutaneous anaphylaxis (PCA); settings: absence of functional delta (IC 87114 and p110δ D910A mice)
# p110δ = target: T1, p110δ (Homo sapiens, UniProt O00329)
# T1 sequence (O00329 1-1044): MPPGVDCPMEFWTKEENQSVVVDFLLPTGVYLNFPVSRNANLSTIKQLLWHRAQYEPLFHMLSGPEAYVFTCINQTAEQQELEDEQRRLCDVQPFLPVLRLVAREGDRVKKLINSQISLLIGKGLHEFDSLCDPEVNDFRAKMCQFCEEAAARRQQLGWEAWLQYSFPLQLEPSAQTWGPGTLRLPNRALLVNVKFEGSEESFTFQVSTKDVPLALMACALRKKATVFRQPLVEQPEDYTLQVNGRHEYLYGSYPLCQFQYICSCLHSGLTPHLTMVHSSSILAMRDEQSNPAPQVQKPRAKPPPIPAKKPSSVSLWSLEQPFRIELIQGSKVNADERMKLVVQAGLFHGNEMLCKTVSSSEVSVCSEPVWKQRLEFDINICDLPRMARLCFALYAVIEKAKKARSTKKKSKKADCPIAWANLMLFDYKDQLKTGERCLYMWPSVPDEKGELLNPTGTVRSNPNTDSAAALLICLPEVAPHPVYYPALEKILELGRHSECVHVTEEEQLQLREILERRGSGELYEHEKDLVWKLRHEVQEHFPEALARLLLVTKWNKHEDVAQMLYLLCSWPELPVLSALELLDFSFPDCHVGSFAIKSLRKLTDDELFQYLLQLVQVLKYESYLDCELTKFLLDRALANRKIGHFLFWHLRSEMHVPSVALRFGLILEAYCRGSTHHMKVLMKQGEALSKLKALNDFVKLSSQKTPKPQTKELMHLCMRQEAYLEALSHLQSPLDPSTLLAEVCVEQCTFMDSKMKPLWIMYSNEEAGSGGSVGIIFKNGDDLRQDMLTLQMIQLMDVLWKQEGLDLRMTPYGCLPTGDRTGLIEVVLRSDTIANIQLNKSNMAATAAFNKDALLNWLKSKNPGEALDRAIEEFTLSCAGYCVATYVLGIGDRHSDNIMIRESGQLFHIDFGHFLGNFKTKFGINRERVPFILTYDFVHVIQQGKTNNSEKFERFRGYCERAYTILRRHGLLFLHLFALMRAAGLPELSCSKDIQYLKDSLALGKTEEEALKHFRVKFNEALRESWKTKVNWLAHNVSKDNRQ
SMILES,onset of disease in a model of systemic lupus erythematosis [1],efficacy in a mouse model of rheumatoid arthritis [2],inflammation and disease in a murine model of asthma [3],activity against any protein kinases tested (protein kinases),passive cutaneous anaphylaxis (PCA) [4],inhibits p110δ (p110δ)
O=C1NC(=O)/C(=C\c2ccc3nccnc3c2)S1 [AS 605240],delay onset of disease,efficacious,–,–,–,–
Cc1ccccc1-n1c(Cn2cnc3c(N)ncnc32)nc2cccc(C)c2c1=O [IC87114],–,–,significantly ameliorate,no activity,significantly reduced,high nanomolar range (triple digit)
